Measured values as given in ChEMBL document CHEMBL1833802, “Substitution of the GalNAc-α-O-Thr¹¹ residue in drosocin with O-linked glyco-peptoid residue: effect on antibacterial activity and conformational change” (2011).
Activity calls are given as the source filed them. The rule behind the calls is not given here. Numbered stars: 1 amine (or outer) side, 2 acyl side, 3 side chain; on linkers, the order of the positions; unused ones are H or OH. Square brackets hold non-standard residues; d marks the D form. Peptide text beside a SMILES is read from it. X1 = CC(=O)N[C@H]1[C@@H](O[C@@H](C)CN(CC(=O)[*:2])[*:1])O[C@H](CO)[C@H](O)[C@@H]1O; X2 = CC(=O)N[C@H]1[C@@H](O[C@H](C)CN(CC(=O)[*:2])[*:1])O[C@H](CO)[C@H](O)[C@@H]1O; X3 = CC(=O)N[C@H]1[C@@H](OCCN(CC(=O)[*:2])[*:1])O[C@H](CO)[C@H](O)[C@@H]1O

How the values were obtained:
Escherichia coli [1] = assay: Antibacterial activity against clinical isolate Escherichia coli KCTC 1682 after overnight incubation by radial diffusion assay; assay type: functional, organism-based
Escherichia coli [2] = assay: Antibacterial activity against clinical isolate Escherichia coli KCTC 1682 at 50 uM after overnight incubation by radial diffusion assay relative to drosocin D; assay type: functional

| SMILES | Activity (Escherichia coli [1]) | fold change (FC) (Escherichia coli [2]) |
| --- | --- | --- |
| CC[C@H](C)[C@H](NC(=O)[C@@H]1CCCN1C(=O)[C@H](CCCNC(=N)N)NC(=O)[C@@H]1CCCN1C(=O)[C@H](Cc1cnc[nH]1)NC(=O)[C@H](CO)NC(=O)CN(C[C@H](C)O[C@H]1O[C@H](CO)[C@H](O)[C@H](O)[C@H]1NC(C)=O)C(=O)[C@H](C)NC(=O)[C@H](CCCNC(=N)N)NC(=O)[C@@H]1CCCN1C(=O)[C@@H](NC(=O)[C@H](Cc1ccc(O)cc1)NC(=O)[C@@H]1CCCN1C(=O)[C@H](CCCNC(=N)N)NC(=O)[C@@H]1CCCN1C(=O)[C@H](CCCCN)NC(=O)CN)[C@@H](C)O)C(=O)N[C@@H](CCCNC(=N)N)C(=O)N[C@H](C(=O)O)C(C)C (H-GKPRPYTPRA[X1]SHPRPIRV-OH) | Dose-dependent effect | 6 |
| CC[C@H](C)[C@H](NC(=O)[C@@H]1CCCN1C(=O)[C@H](CCCNC(=N)N)NC(=O)[C@@H]1CCCN1C(=O)[C@H](Cc1cnc[nH]1)NC(=O)[C@H](CO)NC(=O)CN(C[C@@H](C)O[C@H]1O[C@H](CO)[C@H](O)[C@H](O)[C@H]1NC(C)=O)C(=O)[C@H](C)NC(=O)[C@H](CCCNC(=N)N)NC(=O)[C@@H]1CCCN1C(=O)[C@@H](NC(=O)[C@H](Cc1ccc(O)cc1)NC(=O)[C@@H]1CCCN1C(=O)[C@H](CCCNC(=N)N)NC(=O)[C@@H]1CCCN1C(=O)[C@H](CCCCN)NC(=O)CN)[C@@H](C)O)C(=O)N[C@@H](CCCNC(=N)N)C(=O)N[C@H](C(=O)O)C(C)C (H-GKPRPYTPRA[X2]SHPRPIRV-OH) | Active | – |
| CC[C@H](C)[C@H](NC(=O)[C@@H]1CCCN1C(=O)[C@H](CCCNC(=N)N)NC(=O)[C@@H]1CCCN1C(=O)[C@H](Cc1cnc[nH]1)NC(=O)[C@H](CO)NC(=O)CN(CCO[C@H]1O[C@H](CO)[C@H](O)[C@H](O)[C@H]1NC(C)=O)C(=O)[C@H](C)NC(=O)[C@H](CCCNC(=N)N)NC(=O)[C@@H]1CCCN1C(=O)[C@@H](NC(=O)[C@H](Cc1ccc(O)cc1)NC(=O)[C@@H]1CCCN1C(=O)[C@H](CCCNC(=N)N)NC(=O)[C@@H]1CCCN1C(=O)[C@H](CCCCN)NC(=O)CN)[C@@H](C)O)C(=O)N[C@@H](CCCNC(=N)N)C(=O)N[C@H](C(=O)O)C(C)C (H-GKPRPYTPRA[X3]SHPRPIRV-OH) | Active | – |
